From paper PMC5840262, “Design, Synthesis and Evaluation of Branched RRWQWR-Based Peptides as Antibacterial Agents Against Clinically Relevant Gram-Positive and Gram-Negative Pathogens” (Frontiers in Microbiology, 2018)
“And” between values parts separate entries of the source, which are not always exact repeats. Identical values can stand only once. Like-named read-outs stand apart in the source and are kept apart here. Values belong to the substance of their own block, whether it stands above or below them. Ends that are not written are not given here.

Experiments:
[1] = system: Pseudomonas aeruginosa ATCC 27853 (resistant); assay type: cell-based
Description: (§1) We screened all five peptides against the ATCC reference strains and the clinical isolates according to Method M7-A7 of the National Committee for Clinical Laboratory Standards (CLSI, [2007]). The MIC50 and MBC values were determined using a broth microdilution and growth inhibition method previously reported by Leon-Calvijo et al. ([2015]), with some modifications (Wiegand et al., [2008]). Briefly, the MIC50 experiments comprised a liquid-inhibition growth assay in a sterile, untreated, 96-well flat-bottom tissue culture plate. The bacteria were cultured overnight n Mueller Hinton agar; three colonies were transferred to 8 mL of Mueller Hilton broth and incubated at 37°C until the mid-exponential phase of growth. The turbidity of the cultures was measured and adjusted spectrophotometrically to a McFarland standard of 0.5, and then diluted to a final concentration of 5 × 10^7 colony forming units (CFU) per well. Stock solutions (2,000 μM) of each test peptide were serially diluted to final concentrations (per well) of 200, 100, 50, 25, 12.5, and 6.25 μM. Each concentration was evaluated in duplicate and each assay was performed in triplicate.
(§2) Wells containing Mueller Hilton broth with bacterial inoculum only served as bacterial-growth controls. Additional controls included Mueller Hilton broth alone (as blank) and Mueller Hilton broth with ciprofloxacin (2 μg/mL; as positive control). The microplate was incubated for 24 h at 37°C, and growth inhibition was measured by monitoring the optical density at 620 nm (OD620). The MIC50 was defined as the peptide concentration at which bacterial growth was inhibited by 50%.
(§3) To determine the MBC, an aliquot from each well of the MIC50 assay was spread onto Mueller Hilton agar. After 18 h at 37°C, the concentration that inhibited bacterial growth was determined. Each of these tests was performed four times. MBC was defined as the lowest concentration of peptide at which the number of bacteria was reduced by 99.9% in vitro (European Committee for Antimicrobial Susceptibility Testing, [2000]).

[2] = system: Pseudomonas aeruginosa ATCC 10145 (sensitive); assay type: cell-based
Description: as §1, §2, §3

[3] = system: Enterococcus faecalis ATCC 29212 (sensitive); assay type: cell-based
Description: as §1, §2, §3

[4] = system: Enterococcus faecalis ATCC 51575 (resistant); assay type: cell-based
Description: as §1, §2, §3

human erythrocytes = assay: Hemolytic activity; assay type: cell-based
Description: Human erythrocytes collected from the blood samples of healthy humans were harvested by centrifugation for 7 min at 162 × g and washed three times in phosphate-buffered saline (PBS). The erythrocytes (2% hematocrit in PBS) were incubated with peptide molecules at several concentrations (6.25, 12.5, 25, 50, and 100 μM) for 2 h at 37°C. PBS was used as negative control for hemolysis, and sterile distilled water was used as positive control (100% hemolysis). The plate was subsequently centrifuged at 1,459 × g for 10 min at 4°C. Aliquots of the supernatant from each well (75 μL) were carefully transferred to a new sterile 96-well plate, and hemolytic activity was evaluated by measuring the OD492 using an Asys Expert Plus Microplate reader. The experiments were performed in duplicate, and hemolytic activity was calculated for each peptide.

[5] = system: Klebsiella pneumoniae clinical isolate 50,424; assay type: cell-based
Description: (§4) For the clinical isolates, we used 20 different isolates from the Public Health Reference Laboratory collection of the Secretaría de Salud del Distrito (SdSD; Bogotá, Colombia). The samples were collected from June to December 2016. For each isolate, the patient parameters (age, gender and location) and the culture site were recorded for epidemiologic monitoring (Table 1). All isolates had been previously tested for antibiotic sensitivity at the Public Health Microbiology Laboratory using either the Phoenix™ system (Gram-positive) or the VITEK 2 system (Gram-negative).
as §1, §2, §3

[6] = system: Staphylococcus aureus clinical isolate 52,013; assay type: cell-based
Description: as §4, §1, §2, §3

[7] = system: Pseudomonas aeruginosa clinical isolate 47,661; assay type: cell-based
Description: as §4, §1, §2, §3

[8] = system: clinical isolates of Gram-negative bacteria (Klebsiella pneumoniae, Pseudomonas aeruginosa); assay: Therapeutic index, Gram-negative clinical isolates
From the text: (§5) We determined the therapeutic index of each peptide, which we defined as the ratio of Maximum Hemolytic Activity (Hmax) to MIC50 (Hmax/MIC50).
(§6) The results are shown in Table 7 (Gram-positive) and Table 8 (Gram-negative). Regarding the Gram-positive bacteria, the palindromic, dimeric and tetrameric peptides were active chiefly against S. aureus. This trend was consistent with results of the experiments on the ATCC strains, in which these peptides were only active against the sensitive strain of the […] bacteria.

[9] = system: Gram-negative ATCC strains (K. pneumoniae 13883 and 700603, P. aeruginosa 10145 and 27853)
From the text: as §5
The therapeutic index (TI) is a ratio of the toxic dose of a substance to its therapeutically-active dose and can be calculated different ways (e.g., LD50/ED50). Here, we calculated a TI value for each peptide against all the Gram-positive or the Gram-negative ATCC strains, by dividing its Hmax by its MIC50 for the given group of strains. […] Additionally, to make our quantitative analysis more robust [geometric mean (Khachatryan et al., [2017]) and fold values], we have included MIC50 values for these peptides against S. aureus and K. pneumoniae that we previously obtained using the same assay, the M7-A7 method of the National Committee for Clinical Laboratory Standards (Leon-Calvijo et al., [2015]).

[10] = system: clinical isolates of Gram-positive bacteria (Enteroccocus faecium, Staphylococcus aureus); assay: Therapeutic index, Gram-positive clinical isolates
From the text: as §5, §6

Substance: RRWQWR-NH2 [LfcinB (20–25), reference compound]
- MIC50 ([1]; P. aeruginosa ATCC 27853 resistant, broth microdilution, 24 h 37°C, OD620, 50% growth inhibition): >200.0 µM
- MBC ([1]; P. aeruginosa ATCC 27853 resistant, plated on Mueller Hinton agar, 18 h 37°C, 99.9% reduction): >200.0 µM
- MIC50 ([2]; P. aeruginosa ATCC 10145 sensitive, broth microdilution, 24 h 37°C, OD620, 50% growth inhibition): >200.0 µM
- MBC ([2]; P. aeruginosa ATCC 10145 sensitive, plated on Mueller Hinton agar, 18 h 37°C, 99.9% reduction): >200.0 µM
- MBC ([3]; E. faecalis ATCC 29212 sensitive, aliquots of MIC50 wells on Mueller Hinton agar, 18 h 37°C, 99.9% reduction): >200.0 µM
- MIC50 ([3]; E. faecalis ATCC 29212 sensitive, broth microdilution, Mueller Hinton broth, 24 h 37°C, OD620, concentration inhibiting growth by 50%): >200.0 µM
- MIC50 ([4]; E. faecalis ATCC 51575 resistant, broth microdilution, 24 h 37°C, OD620, 50% growth inhibition): 198.0 µM
- MBC ([4]; E. faecalis ATCC 51575 resistant, plated on Mueller Hinton agar, 18 h 37°C, 99.9% reduction): >200.0 µM
- Hmax, maximum hemolytic activity (human erythrocytes; human red blood cells, 2% hematocrit in PBS, 2 h 37°C, OD492, peptide 6.25-100 μM, concentration of the maximum in the column beside, duplicate): 7.1%
- H50, concentration of peptide leading to 50% hemolysis (human erythrocytes; human red blood cells, 2 h 37°C, highest concentration tested 100 μM): >100 µM
- Peptide concentration corresponding to Hmax (human erythrocytes; human red blood cells, 2 h 37°C, used as MHC in the therapeutic index): 25 µM and 25.0 µM
- MIC50 ([5]; K. pneumoniae isolate 50,424, broth microdilution, 24 h 37°C, OD620, 50% growth inhibition): 11.3 µM
- MBC ([5]; K. pneumoniae isolate 50,424, plated on agar 18 h 37°C, 99.9% reduction): >100 µM
- MIC50 ([6]; S. aureus isolate 52,013, broth microdilution, 24 h 37°C, OD620, 50% growth inhibition): 5.1 µM
- MBC ([6]; S. aureus isolate 52,013, plated on agar 18 h 37°C, 99.9% reduction): >100 µM
- MIC50 ([7]; P. aeruginosa isolate 47,661, broth microdilution, 24 h 37°C, OD620, 50% growth inhibition): >100 µM
- MBC ([7]; P. aeruginosa isolate 47,661, plated on agar 18 h 37°C, 99.9% reduction): >100 µM

- MIC50 ([1]; ATCC 27853, 24 h): 107.2 µM
- MIC50 ([2]; ATCC 10145, 24 h): 99.7 µM
- MIC50 ([3]; ATCC 29212, 24 h): 25.6 µM
- MIC50 ([4]; ATCC 51575, 24 h): >200.0 µM
- Gm, geometric mean of MIC50 values [9]: 54.1
- MIC50 ([5]; clinical isolate 50,424, 24 h): 5.6 µM
- MIC50 ([6]; clinical isolate 52,013, 24 h): 8.3 µM
- MIC50 ([7]; clinical isolate 47,661, 24 h): 75.0 µM
Substance: RWQWRWQWR [PLS]
- MBC ([1]; ATCC 27853, 18 h): >200.0 µM
- MBC ([2]; ATCC 10145, 18 h): >200.0 µM
- MBC ([3]; ATCC 29212, 18 h): 100.0 µM
- MBC ([4]; ATCC 51575, 18 h): >200.0 µM
- H50, concentration of peptide leading to 50% hemolysis (human erythrocytes; red cells of human, 2 h): >100 µM
- Gm, geometric mean of MIC50 values [8]: 17.4 µM
- MBC ([5]; clinical isolate 50,424, 18 h): >100 µM
- MBC ([6]; clinical isolate 52,013, 18 h): 100.0 µM
- MBC ([7]; clinical isolate 47,661, 18 h): >100 µM
- Gm, geometric mean of MIC50 values [10]: 13.7
